Usually pEC50 stands for −log10 of the EC50, conventionally taken in molar units.

These results are taken from patent US8461183B2, “PPAR agonist compounds, preparation and uses” (Genfit, priority 2008, dated 2013).

Each structure is given as a SMILES string. pEC50: −log10 of the molar value.

Common to all, as to format: cell-based
In one experiment the target is T1, hPPARγ (Homo sapiens, UniProt P37231).
T1 construct: corresponding to the DEF domains (structural elements of the promoter of the PPARs: D=hinge, EF=ligand fixation domain and AF2 fixation site); expressed in transfected cells; host or cells: COS-7 (monkey kidney fibroblasts)
T1 sequence (P37231 238-503 limits assumed): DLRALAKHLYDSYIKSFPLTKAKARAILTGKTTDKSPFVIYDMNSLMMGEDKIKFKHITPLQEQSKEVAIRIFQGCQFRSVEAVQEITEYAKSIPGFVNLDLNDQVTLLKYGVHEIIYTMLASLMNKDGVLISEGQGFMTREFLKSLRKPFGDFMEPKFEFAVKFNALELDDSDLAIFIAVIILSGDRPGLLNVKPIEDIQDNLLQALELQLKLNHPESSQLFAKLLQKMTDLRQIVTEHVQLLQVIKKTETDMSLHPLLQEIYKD
Nature of the experiment: Gal4-hPPARγ chimera transactivation (luciferase) in COS-7 cells. Conditions: 24 hours; for pEC50: luciferase, read-out: PPARγ EC50; for Emax: relative to maximum activation obtained with rosiglitazone, read-out: PPARγ TOP % (maximum activation). The method, then:
(§1) Activation of PPARs is evaluated in vitro on a line of monkey kidney fibroblasts (COS-7) by measuring the transcriptional activity of chimeras consisting of the DNA binding domain of Gal4 transcription factor of yeast and of the ligand binding domain of the various PPARs of human origin (hPPAR).
(§2) The COS-7 cells are from ATCC and are cultivated in DMEM medium supplemented with 10% (vol/vol) of fetal calf serum, 1% of penicillin/streptomycin (Biochrom, AG), 1% of amino acids (Gibco) and 1% of sodium pyruvate (Gibco). The cells are incubated at 37° C. in a humid atmosphere containing 5% CO2.
(§3) The plasmids Gal4(RE)_TkpGL3, pGal4-hPPARα, pGal4-hPPARγ, pGal4-hPPARδ and pGal4-φ are described in the literature (Raspe E et al., 1999). The constructs pGal4-hPPARα, pGal4-hPPARγ and pGal4-hPPARδ were obtained by cloning, into the pGal4-φ vector, DNA fragments amplified by PCR corresponding to the DEF domains (structural elements of the promoter of the PPARs: D=hinge, EF=ligand fixation domain and AF2 fixation site) of the human nuclear receptors PPAα, PPARγ and PPARδ.
(§4) The adherent COS-7 cells are transfected with 40 μg of DNA per 225 cm^2 flask, with a pGal4-hPPAR/Gal4(RE)_TkpGL3 ratio of 1/10, in the presence of 10% of fetal calf serum. The cells are then detached and seeded in the absence of serum in 384-well plates (2×10^4 cells/well) then incubated for 4 hours at 37° C. The compounds are then diluted in a 96-well plate and then transferred to the 384-well plate. Activation with the test compounds is effected for a further 24 hours at 37° C. in the presence of 1% of synthetic serum Ultroser™ (Biosepra). These last 2 stages are automated by means of a Genesis Freedom 200™ station (Tecan). At the end of the experiment, the cells are lysed and the luciferase activity is determined using the Steady-Lite™ HTS (Perkin Elmer) according to the supplier's recommendations.
(§5) The test data are summarized in Table 8-1 below, which presents, for each compound, the values of maximum activation (TOP %) and the EC50 values measured for each isoform of PPAR.

The target of a further experiment is T2, hPPARδ (Homo sapiens, UniProt Q03181).
T2 construct: corresponding to the DEF domains (structural elements of the promoter of the PPARs: D=hinge, EF=ligand fixation domain and AF2 fixation site); expressed in transfected cells; host or cells: COS-7 (monkey kidney fibroblasts)
T2 sequence (Q03181 211-439 limits assumed): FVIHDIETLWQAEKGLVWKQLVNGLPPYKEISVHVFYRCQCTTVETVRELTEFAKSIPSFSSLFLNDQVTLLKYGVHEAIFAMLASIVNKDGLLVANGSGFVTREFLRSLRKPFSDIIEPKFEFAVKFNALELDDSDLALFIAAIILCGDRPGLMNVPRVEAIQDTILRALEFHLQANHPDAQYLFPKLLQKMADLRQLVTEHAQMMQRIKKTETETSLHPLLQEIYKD
Put plainly: Gal4-hPPARδ chimera transactivation (luciferase) in COS-7 cells. As to conditions: COS-7 cells, Gal4-hPPARδ, 24 hours; for pEC50: luciferase, read-out: PPARδ EC50; for Emax: relative to maximum activation obtained with GW501516, read-out: PPARδ TOP % (maximum activation). The method, then:
as §1, §2, §3, §4, §5

A further experiment has as its target T3, hPPARα (Homo sapiens, UniProt Q07869).
T3 construct: corresponding to the DEF domains (structural elements of the promoter of the PPARs: D=hinge, EF=ligand fixation domain and AF2 fixation site); expressed in transfected cells; host or cells: COS-7 (monkey kidney fibroblasts)
T3 sequence (Q07869 239-466 limits assumed): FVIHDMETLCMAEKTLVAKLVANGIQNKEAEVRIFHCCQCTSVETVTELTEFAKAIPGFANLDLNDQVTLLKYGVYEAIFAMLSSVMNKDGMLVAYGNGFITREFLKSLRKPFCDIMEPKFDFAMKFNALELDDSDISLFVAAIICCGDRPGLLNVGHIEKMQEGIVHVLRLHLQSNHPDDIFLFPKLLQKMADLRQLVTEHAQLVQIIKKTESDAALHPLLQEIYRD
Put plainly: Gal4-hPPARα chimera transactivation (luciferase) in COS-7 cells. Conditions: COS-7 cells, Gal4-hPPARα, 24 hours; for pEC50: luciferase, read-out: PPARα EC50; for Emax: relative to maximum activation obtained with fenofibric acid, read-out: PPARα TOP % (maximum activation). The method, then:
as §1, §2, §3, §4
The test data are summarized in Table 8-1 below, which presents, for each compound, the values of maximum activation (TOP %) and the EC50 values measured for each isoform of PPAR. The values of maximum activation are expressed in percentages relative to the maximum activations obtained with reference agonists: fenofibric acid for PPARα, rosiglitazone for PPARγ and 2-methyl-4-((4-methyl-2-(4-trifluoromethylphenyl)-1,3-thiazol-5-yl)-methylsulfanyl)phenoxyacetic acid (also called GW501516) for PPARδ.

On to `COc1ncc(-c2cccc(C(F)(F)F)c2)cc1CNc1ccc(CCC(=O)O)cc1` [Cpd 47, 3-(4-(((2-methoxy-5-(3-(trifluoromethyl)phenyl)pyridin-3-yl)methyl)amino)-phenyl)propanoic acid], for which the values for the pEC50 at hPPARγ, at hPPARδ and on hPPARα were 5.97, 5.72 and 5.72, respectively. In addition, the Emax on hPPARγ amounted to 85%; on hPPARδ, 79.2%; at hPPARα it was 58.6%.
Take `COc1nc(-c2ccc(C(F)(F)F)cc2)ccc1COc1ccc(OC(C)(C)C(=O)O)cc1` [Cpd 21, 2-(4-((2-methoxy-6-(4-(trifluoromethyl)phenyl)pyridin-3-yl)methoxy)-phenoxy)-2-methylpropanoic acid]: the pEC50 at hPPARγ was 5.84; at hPPARδ it was 6.56. In addition, the Emax is 51.5% at hPPARγ, 100% on hPPARδ and 70.2% on hPPARα.
`O=C(O)COc1ccc(OCc2ccc(-c3ccccc3)nc2Sc2ccccc2)cc1` [Cpd 25, 2-(4-((2-phenylthio-6-(phenyl)pyridin-3-yl)methoxy)phenoxy)ethanoic acid]: the pEC50 is 5.08 on hPPARγ, 5.20 on hPPARδ and 5.16 on hPPARα. Moreover, the Emax at hPPARγ was determined as 38.3%; on hPPARδ, 71%; at hPPARα, 53.9%.
Turning to `CCCCCCOc1nc(-c2ccccc2)ccc1COc1ccc(OC(C)(C)C(=O)O)cc1` [Cpd 17, 2-(4-((2-hexyloxy-6-phenylpyridin-3-yl)methoxy)phenoxy)-2-methyl-propanoic acid], the pEC50 on hPPARγ is 6.23; on hPPARδ, 6.00; at hPPARα, 8.05. Also, the values for the Emax at hPPARγ, on hPPARδ and on hPPARα were 75.6%, 99.6% and 66.8%, respectively.
In the case of `CC(C)(C)Oc1nc(-c2ccccc2)ccc1CNc1ccc(OC(C)(C)C(=O)O)cc1` [Cpd 9, 2-(4-(((2-tert-butyloxy-6-phenylpyridin-3-yl)methyl)amino)phenoxy)-2-methyl-propanoic acid], the pEC50 on hPPARγ is 5.22; on hPPARδ, 6.33; on hPPARα it was 5.35. For the same compound, the Emax came out at 23.9% at hPPARγ, 74.2% at hPPARδ and 33.7% on hPPARα.
As for `CC#CC(CC(=O)O)c1ccc(OCc2ccc(-c3ccccc3)nc2OC)cc1` (centres unmarked) [Cpd 53, 3-(4-((2-methoxy-6-phenylpyridin-3-yl)methoxy)phenyl)hex-4-ynoic acid], the figures for the pEC50 at hPPARγ, on hPPARδ and at hPPARα were 6.00, 4.99 and 5.29, respectively. Further, the values for the Emax at hPPARγ, at hPPARδ and at hPPARα were 78%, 9.86% and 48.6%, respectively.
Regarding `COc1nc(-c2cccc(C(F)(F)F)c2)ccc1CNc1ccc(CCC(=O)O)cc1` [Cpd 40, 3-(4-(((2-methoxy-6-(3-(trifluoromethyl)phenyl)pyridin-3-yl)methyl)amino)-phenyl)propanoic acid], the negative logarithm of the EC50 (pEC50) at hPPARγ was 6.02; at hPPARδ, 7.10; on hPPARα, 6.78. In addition, the values for the Emax at hPPARγ, at hPPARδ and on hPPARα were 87.2%, 107% and 66.7%, respectively.
On to `COc1ncc(-c2ccccc2)cc1CNc1ccc(CCC(=O)O)cc1` [Cpd 41, 3-(4-(((2-methoxy-5-phenylpyridin-3-yl)methyl)amino)phenyl)propanoic acid], for which the negative-log EC50 (pEC50) on hPPARγ was 4.57; at hPPARδ, 4.77; at hPPARα it was 5.13. The Emax on hPPARγ came out at 72.1%; at hPPARδ, 107%; on hPPARα it was 35.9%.
Take `COc1nc(OC)c(-c2ccccc2)cc1CNc1ccc(CCC(=O)O)cc1` [Cpd 48, 3-(4-(((2,6-dimethoxy-5-phenylpyridin-3-yl)methyl)amino)phenyl)propanoic acid]: the pEC50 was 5.02 at hPPARγ, 4.78 on hPPARδ and 4.58 on hPPARα. Besides, the results for the Emax on hPPARγ, on hPPARδ and on hPPARα were 58.2%, 68.1% and 35.9%, respectively.
In the case of `COc1cc(NCc2ccc(-c3ccccc3)nc2OC)ccc1CCC(=O)O` [Cpd 43, 3-(2-methoxy-4-(((2-methoxy-6-phenylpyridin-3-yl)methyl)amino)-phenyl)-propanoic acid], the pEC50 was 6.40 on hPPARγ, 5.82 at hPPARδ and 5.84 on hPPARα. The Emax at hPPARγ came to 85.6%; on hPPARδ, 77.9%; at hPPARα it was 44.9%.
On to `COc1nc(-c2ccccc2)ccc1CNc1ccc(OC(C)C(=O)O)cc1` (centres unmarked) [Cpd 5, 2-(4-(((2-methoxy-6-phenylpyridin-3yl)methyl)amino)phenoxy)propanoic acid], for which the values for the pEC50 at hPPARγ, on hPPARδ and at hPPARα were 5.43, 5.21 and 6.41, respectively. The Emax was determined as 57.3% at hPPARγ, 71% at hPPARδ and 67.5% on hPPARα.
With `CC(C)(C)Oc1nc(-c2ccccc2)ccc1CNc1ccc(OCC(=O)O)cc1` [Cpd 8], the negative-log EC50 (pEC50) on hPPARγ is 4.91; at hPPARδ, 5.68; on hPPARα, 5.10. Further, the Emax at hPPARγ is 13.4%; on hPPARδ, 72.4%; on hPPARα, 21.9%.
On to `COc1nc(-c2ccccc2)ccc1CNc1cccc(OC(C)(C)C(=O)O)c1` [Cpd 13, 2-(3-(((2-methoxy-6-phenylpyridin-3-yl)methyl)amino)phenoxy)-2-methyl-propanoic acid], for which the pEC50 on hPPARγ was 5.16; on hPPARδ it was 5.49; on hPPARα it was 5.84. Besides, the Emax on hPPARγ amounted to 24.1%; on hPPARδ, 96.1%; on hPPARα it was 61.9%.
With `COc1nc(-c2ccc(-c3ccccc3)cc2)ccc1CNc1ccc(CCC(=O)O)cc1` [Cpd 39, 3-(4-(((2-methoxy-6-(parabiphenyl)pyridin-3-yl)methyl)amino)phenyl)-propanoic acid], the pEC50 at hPPARγ was 5.71; at hPPARδ, 5.86; on hPPARα, 6.76. Moreover, the Emax on hPPARγ was 100%; on hPPARδ it was 95.3%; at hPPARα, 52.2%.
Take `COc1ncc(-c2ccc3ccccc3c2)cc1CNc1ccc(CCC(=O)O)cc1` [Cpd 50, 3-(4-(((2-methoxy-5-(naphthalen-2-yl)pyridin-3-yl)methyl)amino)phenyl)-propanoic acid]: the negative-log EC50 (pEC50) on hPPARγ is 5.72; on hPPARδ, 6.11; at hPPARα it was 6.11. For the same compound, the Emax at hPPARγ stood at 63.7%; at hPPARδ it was 103%; at hPPARα, 46.8%.
